Measured values: article PMC5344293, “A phase 1 dose-escalation and expansion study of binimetinib (MEK162), a potent and selective oral MEK1/2 inhibitor” (British Journal of Cancer, 2017)

Assay: Phase 1 safety: adverse events
Format: in vivo, human
Experimental: All patients underwent a complete medical history and physical examination, assessment of ECOG performance status and vital signs, and laboratory analysis of haematology, coagulation, clinical chemistry, and urine. Three serial resting and supine 12-lead electrocardiograms were conducted over 5–10 min and cardiac ejection fraction was assessed by echocardiogram or MUGA. In addition, a complete ophthalmologic examination (including visual acuity; fundoscopy and tonometry; optical coherence tomography; and slit-lamp, lens, vitreous, and fluorescence dye examinations) was performed on each patient. These assessments were repeated throughout study participation and/or as clinically indicated. Adverse events were reviewed on an ongoing basis.
Adverse events and serious AEs (SAEs) were coded by preferred term (PT) and system organ class using the Medical Dictionary for Regulatory Activities version 12.0. The severity of AEs was assessed by investigators using the National Cancer Institute Common Terminology Criteria for Adverse Events version 3.0. Two AEs of special interest were captured under the composite terms of ‘combined rash' and ‘combined ocular events.' The ‘combined rash' term included the PTs of dermatitis acneiform, acne, skin exfoliation, and any term containing ‘rash'. The ‘combined ocular events' term included the PTs of retinal deposits, retinopathy, papilloedema, chorioretinopathy, macular oedema, retinal detachment, and retinal disorder.
All patients who received ⩾1 dose of binimetinib were included in the safety analysis. Patients in the safety analysis who had ⩾1 measurable lesion at baseline and at least 1 post-baseline disease assessment were evaluable for efficacy. Kaplan–Meier estimates of progression-free survival (PFS) and overall survival (OS) were performed for patients in the expansion phase ([Kaplan and Meier, 1958]) using SAS Version 9.2 (SAS Institute Inc., Cary, NC, USA).

[1] = AEs regardless of causality, N=93

Cn1cnc2c(F)c(Nc3ccc(Br)cc3F)c(C(=O)NOCCO)cc21 [binimetinib]
Anaemia (80 mg BID (n=4), Gr 1/2): 0 (0) n (%)
Anorexia (80 mg BID (n=4), Gr 1/2): 1 (25) n (%)
Combined ocular events (80 mg BID (n=4), Gr 1/2): 1 (25) n (%)
Combined rash (80 mg BID (n=4), Gr 1/2): 0 (0) n (%)
Constipation (80 mg BID (n=4), Gr 1/2): 0 (0) n (%)
Diarrhoea (80 mg BID (n=4), Gr 1/2): 1 (25) n (%)
Dizziness (80 mg BID (n=4), Gr 1/2): 0 (0) n (%)
Dyspnoea (80 mg BID (n=4), Gr 1/2): 1 (25) n (%)
Fatigue (80 mg BID (n=4), Gr 1/2): 1 (25) n (%)
Nausea (80 mg BID (n=4), Gr 1/2): 1 (25) n (%)
Peripheral oedema (80 mg BID (n=4), Gr 1/2): 2 (50) n (%)
Pyrexia (80 mg BID (n=4), Gr 1/2): 0 (0) n (%)
Vomiting (80 mg BID (n=4), Gr 1/2): 2 (50) n (%)
Abdominal pain (80 mg BID (n=4), Gr 3/4): 0 (0) n (%)
Anaemia (80 mg BID (n=4), Gr 3/4): 0 (0) n (%)
Anorexia (80 mg BID (n=4), Gr 3/4): 0 (0) n (%)
Combined ocular events (80 mg BID (n=4), Gr 3/4): 1 (25) n (%)
Combined rash (80 mg BID (n=4), Gr 3/4): 1 (25) n (%)
Constipation (80 mg BID (n=4), Gr 3/4): 0 (0) n (%)
Diarrhoea (80 mg BID (n=4), Gr 3/4): 0 (0) n (%)
Dizziness (80 mg BID (n=4), Gr 3/4): 0 (0) n (%)
Dyspnoea (80 mg BID (n=4), Gr 3/4): 0 (0) n (%)
Fatigue (80 mg BID (n=4), Gr 3/4): 0 (0) n (%)
Nausea (80 mg BID (n=4), Gr 3/4): 0 (0) n (%)
Peripheral oedema (80 mg BID (n=4), Gr 3/4): 0 (0) n (%)
Pyrexia (80 mg BID (n=4), Gr 3/4): 0 (0) n (%)
Vomiting (80 mg BID (n=4), Gr 3/4): 0 (0) n (%)
AEs resulting in treatment discontinuation, patients (80 mg BID dose group): 25%
AEs that resulted in dose reduction, patients (80 mg BID dose group): 75%
Incidence of ocular events (80 mg BID dose group): 50%
Incidence of peripheral oedema (80 mg BID dose group): 50%
Median time to onset of ocular events (18 patients with ocular events, range, 2–168 days): 17 days
Patients who experienced grade 2 events [1]: 41%
Patients who experienced grade 3 events [1]: 49%
Grade 3 abdominal pain (N=93): 4%
Grade 3 anaemia (N=93): 11%
Grade 3 dehydration (N=93): 4%
Grade 4 AEs, patients (N=93): 6%
Grade 4 anaemia (N=93): 3%
Grade 5 events (N=93): no grade 5 events
Abdominal pain (Total (N=93), all grades): 20 (22) n (%)
Anaemia (Total (N=93), all grades): 24 (26) n (%)
Anorexia (Total (N=93), all grades): 18 (19) n (%)
Combined ocular events (Total (N=93), all grades): 18 (19) n (%)
Combined rash (Total (N=93), all grades): 75 (81) n (%)
Constipation (Total (N=93), all grades): 18 (19) n (%)
Diarrhoea (Total (N=93), all grades): 47 (51) n (%)
Dizziness (Total (N=93), all grades): 14 (15) n (%)
Dyspnoea (Total (N=93), all grades): 17 (18) n (%)
Fatigue (Total (N=93), all grades): 40 (43) n (%)
Nausea (Total (N=93), all grades): 52 (56) n (%)
Peripheral oedema (Total (N=93), all grades): 43 (46) n (%)
Pyrexia (Total (N=93), all grades): 17 (18) n (%)
Vomiting (Total (N=93), all grades): 48 (52) n (%)
Diarrhoea, patients (all dose levels, all grades): 51%
Fatigue, patients (all dose levels, all grades): 43%
Nausea, patients (all dose levels, all grades): 56%
Ocular events (combined), patients (all dose levels, all grades): 19%
Peripheral oedema, patients (all dose levels, all grades): 46%
Rash (combined rash and related skin disorders), patients (all dose levels, all grades): 81%
Vomiting, patients (all dose levels, all grades): 52%
AEs of increased blood CK, patients (all patients): 13%
AEs of increased blood CK-MB, patients (all patients): 1%
Combined rash grade 1, patients (all patients): 44%
Combined rash grade 2, patients (all patients): 33%
Discontinuation due to combined rash (all patients): 2%
Discontinuation due to fatigue (all patients): 3%
Discontinuation due to nausea (all patients): 3%
Discontinuation due to small intestinal obstruction (all patients): 2%
Dose modification for AEs of increased blood CK, patients (all patients): 4%
Dose reduction due to chorioretinopathy (all patients): 9%
Dose reduction due to combined rash (all patients): 3%
Dose reduction due to diarrhoea (all patients): 2%
Dose reduction due to fatigue (all patients): 2%
Dose reduction due to increased CK (all patients): 2%
Dose reduction due to macular oedema (all patients): 2%
Dose reduction due to myodesopsia (all patients): 2%
Dose reduction due to photopsia (all patients): 3%
Dose reduction due to retinal detachment (all patients): 3%
Dose reduction due to retinopathy (all patients): 2%
Dose reduction due to visual impairment (all patients): 2%
Dose reduction due to vomiting (all patients): 2%
Grade 3 ocular event of chorioretinopathy, patients (all patients): 1%
Maximum reported SAE severity grade 2, patients (all patients): 5%
Maximum reported SAE severity grade 3, patients (all patients): 22%
Maximum reported SAE severity grade 4, patients (all patients): 3%
Maximum reported severity of nausea, vomiting, or diarrhoea (all patients): either grade 1 or grade 2
Ocular events grade 1, patients (all patients): 5%
Ocular events grade 2, patients (all patients): 13%
Peripheral oedema maximum severity grade 1, patients (all patients): 32%
Peripheral oedema maximum severity grade 2, patients (all patients): 14%
Permanent discontinuation for peripheral oedema, patients (all patients): 1%
SAE anaemia (all patients): 4%
SAE bacteraemia (all patients): 2%
SAE dehydration (all patients): 2%
SAE gastrointestinal haemorrhage (all patients): 2%
SAE pneumonia (all patients): 2%
SAE small intestinal obstruction (all patients): 2%
SAE ulcer haemorrhage (all patients): 2%
Grade 1 venous stasis retinopathy, patients (all patients, led to permanent discontinuation): 1%
Combined rash grade 3, patients (all patients, required dose modification or discontinuation): 3%
Patients who died during the study or within 30 days of the last dose (cause of death disease progression in all): 22%
Patients reporting SAEs (during the study or within 30 days of the last dose, all patients): 30%
Increased CK, patients (laboratory values, all patients): 69%
Ocular events recovering/resolving (of patients with ocular events): 17%
Ocular events with complete resolution (of patients with ocular events): 78%
Ocular events with stable retinal findings at treatment discontinuation (of patients with ocular events): 6%
Clinically significant CK values, patients (shifted by ⩾3 grades from baseline and/or grade 4): 10%
